Legend:
MDA-MB-231 cells [1] = experiment: Cell growth (CCK-8); type: cell-based, human
Description: (§4) Cell growth was analyzed using 2-(2-methoxy-4-nitrophenyl)-3-(4-nitroph enyl)-5-(2,4-disulfophenyl)-2H-tetrazolium, monosodium salt, and the Cell Counting Kit-8 (CCK-8, Sigma). […] After culturing for another 48 hr, cell growth was analyzed by CCK-8 and the optical density was detected at 450 nm. The growth ratio was normalized to the cells without treatment.

MCF-7 cells [2] = experiment: TUNEL apoptosis assay; type: cell-based, human; conditions: MCF-7, 100 μmol/l, vs control or TAT-NLS-BLBD-6m (Fig. 3b)
Description: (§1) MCF-7 and MDA-MB-231 cells were cultured in 35-mm plates with cover slides on the plate bottom and treated with NLS-BLBD-6, TAT-BLBD-6 and TAT-NLS-BLBD-6 peptide for 24 hr. Subsequently, cells were fixed with 4% paraformaldehyde and permeabilized with 0.2% Triton X-100 for 20 min at room temperature. For the immunofluorescence assay, the slides were incubated with primary antibodies, anti-β-catenin (Epitomics) and anti-TAT (Santa Cruz), for 6 hr, and Alexa-488 fluorescence secondary antibodies for 1 hr. DAPI (Sigma, St Louis, MO) was used to stain the nucleus for 1 min at room temperature. For the TUNEL assay, apoptosis was analyzed by the Apo-BrdU-red DNA Fragmentation Assay kit, according to the manufacturer’s protocol (BioVision, Mountain View, CA, USA). For the PLA, the protein–protein interaction assay was analyzed by Duolink® using PLA® Technology, according to the manufacturer’s protocol (Olink Bioscience, Uppsala, Sweden). Briefly, the slides were incubated with primary antibodies, anti-β-catenin (Epitomics) and anti-TAT (Santa Cruz), and secondary antibodies, Duolink PLA Rabbit MINUS and PLA Mouse PLUS proximity probes. Finally, the proximity ligation was performed by the Duolink detection reagent kit (Olink Bioscience). The immunofluorescence image and TUNEL staining was photographed by a microscope (IX-71, Olympus, Tokyo, Japan).

MDA-MB-231 cells [3] = experiment: TUNEL apoptosis assay; type: cell-based, human; conditions: MDA-MB-231, 100 μmol/l, vs control or TAT-NLS-BLBD-6m (Fig. 3b)
Description: as §1

MCF-7 cells [4] = experiment: Transwell invasion assay; type: cell-based, human; conditions: MCF-7, 100 μmol/l, 48 hr post-transfection, vs control or TAT-NLS-BLBD-6m (Fig. 3c)
Description: Transwell chambers of […] pore size were used in the in vitro invasion assay. MCF-7 and MDA-MB-231 cells were seeded onto the upper chamber and incubated with TAT-NLS-BLBD-6 and TAT-NLS-BLBD-6m peptide and 10% fetal bovine serum medium were added to the bottom chamber well. After 24 hr, cells invading the lower chamber were fixed with 4% paraformaldehyde solution and stained with 0.1% crystal violet for 30 min at 37 °C. Three random field images were obtained by microscopy, and the number of invading cells were counted. For the migration assay, MCF-7 and MDA-MB-231 cells were seeded onto 6-well plates. After 24 hr, an artificial wound was created using a 10-μl pipette tip, and the wound was incubated with TAT-NLS-BLBD-6 or TAT-NLS-BLBD-6m for 24 hr at 37 °C. The images of wound healing were captured by microscopy, and the wound healing distances were calculated by Image J (U.S. National Institutes of Health, Bethesda, MD, USA). For the colony formation assay, MCF-7 and MDA-MB-231 cells were seeded into 10-cm dishes with the medium containing TAT-NLS-BLBD-6 or TAT-NLS-BLBD-6m. After 2 weeks, cells were fixed with 4% paraformaldehyde solution and stained with 0.1% crystal violet for 30 min at 37 °C.

[5] = tested on: MCF-7-GFP cells in zebrafish embryos; experiment: Zebrafish xenotransplantation, fluorescence density; type: in vivo, Danio rerio; conditions: MCF-7-GFP co-injected with 100 μmol/l peptide into yolk sacs, between 24 hr and 48 hr, n = 20 per group, vs TAT-NLS-BLBD-6m
Source text: (§2) All animal experiments were approved by the Kaohsiung Medical University Institutional Animal Care and Use Committee (IACUC Approval No: 101156) and we accordance with the approved guidelines. Female nude mice (4–5 weeks old) were obtained from the National Laboratory Animal Center (Taipei, Taiwan). Xenograft tumor models were established by subcutaneous injection of 1 × 10^7 MCF-7-YFP or MDA-MB-231-GFP cells into the right flanks of mice. Mice with palpable tumors were randomly divided into three groups with five animals in each group. The mice were treated with control peptide, 0, 1 and 10 mg/kg TAT-NLS-BLBD-6 by intratumoral injection once every 2 days for 35 days. The fluorescence density was analyzed by an In Vivo Imaging System (IVIS) (Berthold Technologies, Bad Wildbad, Germany), and the tumor volumes (V) of nude mice were calculated by: V = length × diameter^2 × 0.5. For zebrafish xenotransplantation, zebrafishes (Danio rerio) were maintained at 28 °C in an air incubator, and 1 × 10^4 MCF-7-GFP or MDA-MB-231-GFP cells combined with TAT-NLS-BLBD-6 or control peptide were injected into the zebrafish embryos according to the previously described protocol. […]

[6] = tested on: MDA-MB-231-GFP cells in zebrafish embryos; experiment: as above; type: in vivo, Danio rerio; conditions: MDA-MB-231-GFP co-injected with 100 μmol/l peptide into yolk sacs, between 24 hr and 48 hr, n = 20 per group, vs TAT-NLS-BLBD-6m
Source text: as §2

[7] = tested on: β-catenin/TCF4/LEF-1 downstream genes; experiment: Q-PCR of 27 candidate genes in MCF-7; type: cell-based, human; conditions: MCF-7, 100 μmol/l, 48 hr post-transfection, relative to TAT-NLS-BLBD-6m (Fig. 6d)
Description: (§3) Total RNA was isolated by Trizol reagent (Invitrogen, Carlsbad, CA, USA) and reverse transcribed to produce cDNA using the Deoxy + HiSpec reverse transcriptase kit (Yeastern, Taipei, Taiwan) according to the manufacturer instructions. Q-PCR was analyzed with SYBR Green Master Mix (Applied Biosystems, Stockholm, Sweden) and subjected to quantitation in an […]. The primers used for PCR are given in Supplementary Table S5 online. The Q-PCR data were normalized to 18S cDNA levels.

[8] = tested on: β-catenin/TCF4/LEF-1 downstream genes; experiment: Q-PCR of 27 candidate genes in MDA-MB-231; type: cell-based, human; conditions: MDA-MB-231, 100 μmol/l, 48 hr post-transfection, relative to TAT-NLS-BLBD-6m (Fig. 6e)
Description: as §3

[9] = tested on: β-catenin/TCF4/LEF downstream genes; experiment: Q-PCR of downstream genes in ZR-75-30; type: cell-based, human; conditions: ZR-75-30, 100 μmol/l, 48 hr post-transfection, relative to TAT-NLS-BLBD-6m (Fig. 6g)
Description: as §3

breast cancer cells = experiment: Cell growth in combination with E2, BBP or TAM (CCK-8); type: cell-based, human; conditions: 48 hr (Fig. 1e)
Description: as §4

H-TAT-NLS-ATDEMIPF-NH2 [TAT-NLS-BLBD-6] was tested, and the cell growth (MDA-MB-231 cells [1]; 75 μmol/l peptide, MDA-MB-231, CCK-8, means of three experiments (Fig. 1b)) was “inhibited the growth”, the “time and dose dependence of cell growth” value (MDA-MB-231 cells [1]; MDA-MB-231, indicated concentrations, 24, 48 and 72 hr (Fig. 1c,d)) was “inhibited breast cancer cell growth in a time- and dose-dependent manner” and the “apoptosis (TUNEL, BrdU binding and DNA fragmentation)” value (MCF-7 cells [2]) was “increased the effect of binding with BrdU and DNA fragmentation”. For the same substance, the “apoptosis (TUNEL, BrdU binding and DNA fragmentation)” value (MDA-MB-231 cells [3]) was “increased the effect of binding with BrdU and DNA fragmentation”, the invasion (MCF-7 cells [4]) was “inhibited the mobility” and the “fluorescence density of transplanted tumor cells” value [5] was “gradually reduced”. The “fluorescence density of transplanted tumor cells” value [6] was “gradually reduced”, the “gene expression of the 27 candidate genes” value [7] was “decreased” and the “gene expression of the 27 candidate genes” value [8] was “decreased”. For the same substance, the “expression of β-catenin/TCF4/LEF downstream genes” value [9] was “inhibits”, the “cell growth, combination with E2 or BBP” value (breast cancer cells; peptide 100 μmol/l with E2 (1 μM) or BBP (1 μM)) was “blocked the activity of E2 and BBP” and the “cell growth, combination with TAM” value (breast cancer cells; peptide 100 μmol/l with TAM (1 μM)) was “increased the response of TAM”. The “cell growth of embryonic kidney cells” value (HEK293 cells) was “did not inhibit the growth”.

Reference: publication PMC4707489, “A novel cell-penetrating peptide suppresses breast tumorigenesis by inhibiting β-catenin/LEF-1 signaling” (Scientific Reports, 2016)
